Square brackets hold non-standard residues; d marks the D form. Peptide text beside a SMILES is read from it.
Assays:
[1] = target: T1, Proteinase K (ProtK) (Parengyodontium album, UniProt P06873); experiment: in vitro; type: in vitro ADME
T1 construct: purchased Bioshop
Description: Stocks of 20 μM peptide in 200 μL total volume (10 mM Tris-base, 10 mM NaCl, pH 7.4) were supplemented with 5 μM CaCl2) and 30 uL removed for the untreated T0 sample. Proteinase K (ProtK, Bioshop) was then added to a final concentration of 100 μg/mL. Samples were incubated at 37° C. and 30 μL removed after each time point and protease activity blocked by the addition of 10 mM PMSF (200 mM stock dissolved in isopropanol). Protease inactivated samples were frozen at −20° C. until further use. Digestions were repeated three times. Frozen samples were supplemented with 8 μL sample loading buffer (4× NuPAGE, ThermoFisher Scientific), boiled ([…]) for 10 minutes, and centrifuged (12 000 rpm, 10 min) prior to loading the gel (12% NuPAGE Bis-Tris (ThermoFisher Scientific) with MES running buffer). Gels were run at 200 V for […] and stained using Coomassie Brilliant Blue dye. Densitometry of bands was determined using ImageJ software (40) with back ground subtraction. All samples were normalized to their respective untreated sample (T0).

[2] = target: T2, RLN receptor (RXFP1) (Homo sapiens, UniProt Q9HBX9); experiment: CRE-luciferase reporter assay in HEK293 cells stably expressing RXFP1; type: cell-based
T2 construct: expressed in transfected cells; host or cells: HEK293
T2 sequence (Q9HBX9 1-757): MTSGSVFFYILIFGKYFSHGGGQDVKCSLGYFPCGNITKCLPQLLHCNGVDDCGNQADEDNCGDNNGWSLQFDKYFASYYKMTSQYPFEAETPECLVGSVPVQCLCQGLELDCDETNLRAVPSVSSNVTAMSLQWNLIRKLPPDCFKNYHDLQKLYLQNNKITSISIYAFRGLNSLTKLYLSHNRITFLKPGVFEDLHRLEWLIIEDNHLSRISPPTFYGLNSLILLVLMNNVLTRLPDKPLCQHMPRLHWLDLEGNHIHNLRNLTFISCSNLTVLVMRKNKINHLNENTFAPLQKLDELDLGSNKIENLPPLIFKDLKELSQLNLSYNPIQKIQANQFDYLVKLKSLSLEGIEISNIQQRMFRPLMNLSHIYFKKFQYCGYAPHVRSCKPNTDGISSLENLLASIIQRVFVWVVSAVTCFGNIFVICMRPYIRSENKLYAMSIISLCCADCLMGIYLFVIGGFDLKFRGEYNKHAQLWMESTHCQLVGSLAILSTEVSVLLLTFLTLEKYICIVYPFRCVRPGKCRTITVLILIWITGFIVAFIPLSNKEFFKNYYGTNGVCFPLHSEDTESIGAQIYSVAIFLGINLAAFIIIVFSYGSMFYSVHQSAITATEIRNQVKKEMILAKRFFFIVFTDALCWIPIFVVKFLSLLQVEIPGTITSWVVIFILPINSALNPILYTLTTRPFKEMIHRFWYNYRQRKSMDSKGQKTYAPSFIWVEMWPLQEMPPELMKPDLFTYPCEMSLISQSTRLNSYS
Description: This activates protein kinase A (PKA) to phosphorylate and activate cAMP response element-binding protein (CREB). […] All of the (L)-RLN was degraded in about 1 hr, while about 90% of the (D)-analog was still detectable at 6 hours.
FIG. 15 is a series of charts and experiments showing the activity and protease degradation of (D)-RLN_1 (non-mutated) and (D)-RLN_2 (mutated) polypeptides. (A) HEK293 cells stably expressing RXFP1 and CRE-luciferase were stimulated with different concentrations of (D)-RLN_1 and (D)-RLN_2 peptides. Luciferase activity was measured. The experiments were performed in triplicate. (B) Sample gel images of (L) and (D)-RLN peptides treated with Proteinase K (ProtK) over 5 hours. Gels were stained with Coomassie Brilliant Blue dye and band densitometry calculated using ImageJ (40) with background subtraction. (C) Quantification of remaining peptide post ProtK treatment in 60 min intervals. Intensities of peptide bands were normalized to the intensity of the untreated peptide (T0) and converted to a percentage relative to T0. […] Error bars are reporting standard error. Data represent the average of 3 independent experiments.

T1 sequence (P06873 106-384): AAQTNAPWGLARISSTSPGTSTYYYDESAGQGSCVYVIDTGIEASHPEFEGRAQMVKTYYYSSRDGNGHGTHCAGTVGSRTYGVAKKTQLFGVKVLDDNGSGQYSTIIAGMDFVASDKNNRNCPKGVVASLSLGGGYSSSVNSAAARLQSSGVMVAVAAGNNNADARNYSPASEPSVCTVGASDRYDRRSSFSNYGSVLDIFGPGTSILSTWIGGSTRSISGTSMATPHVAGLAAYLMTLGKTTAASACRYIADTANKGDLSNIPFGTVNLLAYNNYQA

CC[C@@H](C)[C@@H](NC(=O)[C@@H](CC(C)C)NC(=O)[C@@H](CC(C)C)NC(=O)[C@@H](CCC(=O)O)NC(=O)[C@@H](CCCCN)NC(=O)[C@@H](CO)NC(=O)[C@H](NC(=O)[C@@H](Cc1c[nH]c2ccccc12)NC(=O)[C@H](N)CO)[C@H](C)O)C(=O)N[C@H](CCC(=O)O)C(=O)N[C@@H](C(=O)N[C@@H](C(=O)N[C@H](CC(N)=O)C(=O)N[C@H](CC(=O)O)C(=O)N[C@H](CC(C)C)C(=O)N[C@H](CCC(N)=O)C(=O)N[C@H](CCCCN)C(=O)N[C@H](CCCNC(=N)N)C(=O)NCC(=O)N[C@H](CS)C(=O)N[C@H](CC(C)C)C(=O)N[C@H](CCCCN)C(=O)N[C@@H](C(=O)N[C@@H](C(=O)N[C@H](CCC(=O)O)C(=O)N[C@H](CCC(=O)O)C(=O)N[C@H](CCSC)C(=O)N[C@H](Cc1c[nH]c2ccccc12)C(=O)N[C@H](CO)C(=O)O)C(C)C)[C@H](C)CC)[C@H](C)CC)[C@H](C)CC [(D)-RLN] (H-[dS][dW][dT][dS][dK][dE][dL][dL][dI][dE][dI][dI][dN][dD][dL][dQ][dK][dR]G[dC][dL][dK][dI][dV][dE][dE][dM][dW][dS]-OH; N-terminus and C-terminus assumed)
degradation by ProtK (in words) [1]: persists after 5 hours | remaining at 6 h, 20 µM ([1]; isolated enzyme proteinase k, pH 7.4, after 6 hours exposure to ProtK, relative to T0, read-out: peptide still detectable): ~90% | activation of RLN receptor, potency and efficacy (in words) [2]: potency and efficacy comparable to (L)-RLN

From US20210057047A1, “IN-SILICO METHOD FOR DESIGNING A (D)-POLYPEPTIDE LIGAND” (THE GOVERNING COUNCIL OF THE UNIVERSITY OF TORONTO, priority 2018, published 2021)
